# Results as given in the OPERA property sets (Mansouri et al. 2018).
Structure (SMILES),melting point,boiling point,log10 vapour pressure (mmHg),log10 Henry constant (atm·m³/mol),log10 Koa,log10 Koc (L/kg),ready biodegradability,log10 biodegradation half-life (days)
O=C(Nc1ccc(Cl)c(Cl)c1)c1cc(Cl)cc(Cl)c1O,161 °C,–,–,–,–,–,–,–
CC1(C)C(O)=CC(=O)C=C1O,214 °C,–,–,–,–,–,–,–
CC(O)CN (configuration not stated),25 °C,160 °C,-0.328,–,–,–,–,–
Clc1cc(Cl)c(-c2cc(Cl)c(Cl)cc2Cl)cc1Cl,–,–,-5.46,-4.64,9.73,5.58,–,–
NCCCNCCCN,-14 °C,–,–,–,–,–,–,–
C=C(C)C=O,-81 °C,68.4 °C,2.19,-3.63,–,–,–,–
Nc1ccc2cc(S(=O)(=O)O)cc(O)c2c1,–,–,–,–,–,–,not readily biodegradable,–
O=C1c2ccccc2C(=O)c2c1cccc2S(=O)(=O)O,–,–,–,–,–,–,not readily biodegradable,–
Cc1coc(C)c1,–,94 °C,–,–,–,–,–,–
Fc1ccc(C(F)(F)F)cc1,-41.7 °C,104 °C,–,–,–,–,–,–
CCOC(=O)c1ccco1,34.5 °C,197 °C,-0.432,–,–,–,–,–
C=CCC(C)C(C)C (configuration not stated),–,109 °C,–,–,–,–,–,–
CC(C)c1ccccc1C(C)C,-57 °C,204 °C,-0.441,–,–,–,not readily biodegradable,–
CC(C(N)=O)n1nc2ccccc2n1 (configuration not stated),170 °C,–,–,–,–,–,–,–
Nc1c(Cl)cc([N+](=O)[O-])cc1[N+](=O)[O-],–,–,–,–,–,–,not readily biodegradable,–
Nc1cccc2cc3ccccc3nc12,108 °C,–,–,–,–,–,–,–
OCC(F)(F)C(F)(F)C(F)(F)F,–,95 °C,1.52,–,–,–,–,–
CCCCCCCCC,-53.5 °C,151 °C,0.648,–,–,–,readily biodegradable,0.954
CC(C)(C)NCCNC(C)(C)C,–,197 °C,-0.575,–,–,–,–,–
ClCC(Cl)(CCl)CCl,–,211 °C,–,–,–,–,–,–
O=C(O)CCCCc1ccccc1,57.5 °C,–,–,–,–,–,–,–

Structure (SMILES),melting point,boiling point,log10 vapour pressure (mmHg),log10 Henry constant (atm·m³/mol),log10 Koa,log10 Koc (L/kg),ready biodegradability,log10 biodegradation half-life (days)
Oc1ccccc1S,5.5 °C,217 °C,–,–,–,–,–,–
Clc1ccccc1C1CO1 (configuration not stated),–,–,–,–,–,–,not readily biodegradable,–
CC1(C)CC(NCCCCCCNC2CC(C)(C)NC(C)(C)C2)CC(C)(C)N1,64 °C,–,–,–,–,–,–,–
CC(C)c1ccc(NC(=O)N(C)C)cc1,158 °C,–,-7.61,–,–,–,–,–
Cc1cccc(Oc2ccccc2)c1,–,272 °C,–,–,–,–,not readily biodegradable,–
O=Cc1ccoc1,–,145 °C,–,–,–,–,–,–
CNC(=O)ON=C(SC)C(=O)N(C)C,101 °C,–,–,–,–,1,–,–
O=C(Cl)c1cccc(F)c1,-30 °C,189 °C,–,–,–,–,–,–
Nc1cccc(S(=O)(=O)c2cccc(N)c2)c1,172 °C,–,–,–,–,–,not readily biodegradable,–
Cn1c([N+](=O)[O-])cnc1COC(N)=O,168 °C,–,–,–,–,–,–,–
O=C1CCc2ccccc2N1,164 °C,–,–,–,–,–,–,–
CCC(=O)c1ccc(N)cc1,140 °C,–,–,–,–,–,–,–
C=CCCCC(C)C,–,113 °C,1.4,–,–,–,–,–
CCC=C(C)C=C(C)C,–,138 °C,–,–,–,–,–,–
C=CCOCC1CO1 (configuration not stated),–,154 °C,–,–,–,–,–,–
Clc1cc(-c2c(Cl)ccc(Cl)c2Cl)c(Cl)c(Cl)c1Cl,–,–,–,-4.85,–,–,–,–
CCCC(C)C(C)=O (configuration not stated),–,144 °C,–,–,–,–,–,–
CCN(CC)c1cccc2ccccc12,–,285 °C,–,–,–,–,–,–
[N-]=[N+]=Nc1ccc(Cl)cc1,20 °C,–,–,–,–,–,–,–
C=C1CC=C(C(C)C)CC1,–,174 °C,–,–,–,–,–,–
COc1cc(OC)nc(N=C(O)NS(=O)(=O)c2c(Cl)nc3ccccn23)n1,–,–,-9.47,–,–,–,–,–

Structure (SMILES),melting point,boiling point,log10 vapour pressure (mmHg),log10 Henry constant (atm·m³/mol),log10 Koa,log10 Koc (L/kg),ready biodegradability,log10 biodegradation half-life (days)
ClCCCCCCCCCl,–,241 °C,–,–,–,–,not readily biodegradable,–
O=C(Nc1ccc(Cl)cc1)Nc1ccc(Cl)c(Cl)c1,256 °C,–,–,–,–,–,not readily biodegradable,–
O=[N+]([O-])CC(O)C(Cl)(Cl)Cl (configuration not stated),45.5 °C,–,–,–,–,–,–,–
N[C@@H](CC(=O)O)C(=O)O,–,–,–,–,–,–,readily biodegradable,–
CNC(=O)c1ccccc1,82 °C,291 °C,–,–,–,1.68,–,–
CC1=C(/C=C/C(C)=C/C=C/C(C)=C/C=C/C=C(C)/C=C/C=C(C)/C=C/C2=C(C)C(=O)C(O)CC2(C)C)C(C)(C)CC(O)C1=O (configuration not stated),182 °C,–,–,–,–,–,–,–
O=CCCCl,–,130 °C,–,–,–,–,–,–
COc1nccnc1N(C(C)=O)S(=O)(=O)c1ccc(N)cc1,199 °C,–,–,–,–,–,–,–
CCCCC(CC)COC(=O)CCC (configuration not stated),–,–,–,–,–,–,readily biodegradable,–
Oc1cccnc1,–,–,–,–,–,–,readily biodegradable,–
CCCCNCCO,-2 °C,199 °C,–,–,–,–,–,–
O=C(c1ccccc1)c1ccccn1,42 °C,317 °C,–,–,–,–,readily biodegradable,–
CCCCCCCCCC,-29.7 °C,174 °C,0.155,–,–,–,readily biodegradable,0.954
N#Cc1ccc(C#N)cc1,224 °C,–,–,–,–,–,not readily biodegradable,–
Cc1ccccc1Oc1cccnn1,78 °C,–,–,–,–,–,–,–
Clc1ccc(Br)c(Cl)c1,26 °C,235 °C,–,–,–,–,–,–
CCCCCCOc1ccccc1,-19 °C,240 °C,–,–,–,–,–,–
C=CCCCCCCCCCCCCCCC,11.5 °C,300 °C,-3.34,–,–,–,–,–
CC(C)=C1OC(=O)C1(C)C,-18 °C,170 °C,–,–,–,–,–,–
C1CCC(CCCCCC2CCCCC2)CC1,-13.6 °C,325 °C,–,–,–,–,–,–
